In publication PMC11845477, “Exploring the principles behind antibiotics with limited resistance” (Nature Communications, 2025):
Where a SMILES comes first, the peptide text is derived from it. Bridges are numbered along the chain shown (N, C = ends). [ ]: non-standard residue; d: D form. The star is where a group is joined. X1 = NC[C@@H](CC(=O)*)c1cccc(Cl)c1; Dab = NCC[C@H](N)C(=O)O; Dap = NC[C@H](N)C(=O)O

Tested on: A. baumannii ATCC 17978 (SEN) and A. baumannii ATCC BAA-1605 (MDR)
Assay: Adaptive laboratory evolution (ALE), relative MIC of evolved lines
Format: cell-based, Acinetobacter baumannii
Summary of the method: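 Ten parallel populations per antibiotic–ancestor pair were evolved in MHB at 37 °C, starting near 50% growth-inhibiting drug. Every 72 h they were passaged into 0.5–2.5× increasing concentrations, keeping the highest-drug well with OD600 > 0.2.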

[1] = AB-MDR (Acinetobacter baumannii ATCC BAA 1605), evolved line 2
[2] = AB-SEN (Acinetobacter baumannii ATCC 17978), evolved line 1
[3] = AB-SEN (Acinetobacter baumannii ATCC 17978), evolved line 3
[4] = AB-SEN (Acinetobacter baumannii ATCC 17978), evolved line 5
[5] = AB-SEN (Acinetobacter baumannii ATCC 17978), evolved line 8
[6] = AB-SEN (Acinetobacter baumannii ATCC 17978), evolved line 9

CC(C)C[C@@H]1NC(=O)[C@@H](Cc2ccccc2)NC(=O)[C@H](CCN)NC(=O)[C@@H](NC(=O)[C@H](CN)NC(=O)[C@@H](NC(=O)C[C@H](CN)c2cccc(Cl)c2)[C@@H](C)O)CCNC(=O)[C@H]([C@@H](C)O)NC(=O)[C@H](CCN)NC(=O)[C@H](CCN)NC1=O [SPR206] (X1-T[Dap][Dab][Dab][dF]L[Dab][Dab]T; lactam 3-C (inferred); N-terminus assumed)
Relative MIC (AB-MDR (ATCC BAA 1605), evolved line 1, evolved vs ancestor): 2048 | Relative MIC (AB-MDR (ATCC BAA 1605), evolved line 2, evolved vs ancestor): 8192 | Relative MIC (AB-MDR (ATCC BAA 1605), evolved line 3, evolved vs ancestor): 512 | Relative MIC (AB-MDR (ATCC BAA 1605), evolved line 4, evolved vs ancestor): 2048 | Relative MIC (AB-MDR (ATCC BAA 1605), evolved line 5, evolved vs ancestor): 8192 | Relative MIC (AB-MDR (ATCC BAA 1605), evolved line 6, evolved vs ancestor): 8192 | Relative MIC (AB-MDR (ATCC BAA 1605), evolved line 7, evolved vs ancestor): 8192 | Relative MIC (AB-MDR (ATCC BAA 1605), evolved line 8, evolved vs ancestor): 4096 | Relative MIC (AB-MDR (ATCC BAA 1605), evolved line 9, evolved vs ancestor): 8192 | Relative MIC (AB-MDR (ATCC BAA 1605), evolved line 10, evolved vs ancestor): 1024 | Relative MIC (AB-MDR (Acinetobacter baumannii ATCC BAA 1605), evolved line 1): 2048 | Relative MIC [1]: 8192 | Relative MIC (log10) [1]: 3.913 log10 | Relative MIC (log10) (AB-MDR (Acinetobacter baumannii ATCC BAA 1605), evolved line 5): 3.913 log10 | Relative MIC (log10) (AB-MDR (Acinetobacter baumannii ATCC BAA 1605), evolved line 6): 3.913 log10 | Relative MIC (log10) (AB-MDR (Acinetobacter baumannii ATCC BAA 1605), evolved line 7): 3.913 log10 | Relative MIC (log10) (AB-MDR (Acinetobacter baumannii ATCC BAA 1605), evolved line 9): 3.913 log10 | MIC of evolved line (AB-MDR ATCC BAA 1605, evolved line 1): 256 µg/mL | MIC of evolved line (AB-MDR ATCC BAA 1605, evolved line 2): 1020 µg/mL | MIC of evolved line (AB-MDR ATCC BAA 1605, evolved line 3): 64 µg/mL | MIC of evolved line (AB-MDR ATCC BAA 1605, evolved line 4): 256 µg/mL | MIC of evolved line (AB-MDR ATCC BAA 1605, evolved line 5): 1020 µg/mL | MIC of evolved line (AB-MDR ATCC BAA 1605, evolved line 6): 1020 µg/mL | MIC of evolved line (AB-MDR ATCC BAA 1605, evolved line 7): 1020 µg/mL | MIC of evolved line (AB-MDR ATCC BAA 1605, evolved line 8): 512 µg/mL | MIC of evolved line (AB-MDR ATCC BAA 1605, evolved line 9): 1020 µg/mL | MIC of evolved line (AB-MDR ATCC BAA 1605, evolved line 10): 128 µg/mL | MIC of evolved line (AB-SEN (A. baumannii ATCC 17978), evolved line 1 of the given antibiotic): 256 µg/mL | Relative MIC (AB-SEN (A. baumannii ATCC 17978), evolved line 1 vs ancestor): 2048 | MIC of evolved line (AB-SEN (A. baumannii ATCC 17978), evolved line 2 of the given antibiotic): 1020 µg/mL | Relative MIC (AB-SEN (A. baumannii ATCC 17978), evolved line 2 vs ancestor): 8192 | MIC of evolved line (AB-SEN (A. baumannii ATCC 17978), evolved line 3 of the given antibiotic): 64 µg/mL | Relative MIC (AB-SEN (A. baumannii ATCC 17978), evolved line 3 vs ancestor): 512 | MIC of evolved line (AB-SEN (A. baumannii ATCC 17978), evolved line 4 of the given antibiotic): 256 µg/mL | Relative MIC (AB-SEN (A. baumannii ATCC 17978), evolved line 4 vs ancestor): 2048 | MIC of evolved line (AB-SEN (A. baumannii ATCC 17978), evolved line 5 of the given antibiotic): 1020 µg/mL | Relative MIC (AB-SEN (A. baumannii ATCC 17978), evolved line 5 vs ancestor): 8192 | MIC of evolved line (AB-SEN (A. baumannii ATCC 17978), evolved line 6 of the given antibiotic): 1020 µg/mL | Relative MIC (AB-SEN (A. baumannii ATCC 17978), evolved line 6 vs ancestor): 8192 | MIC of evolved line (AB-SEN (A. baumannii ATCC 17978), evolved line 7 of the given antibiotic): 1020 µg/mL | Relative MIC (AB-SEN (A. baumannii ATCC 17978), evolved line 7 vs ancestor): 8192 | MIC of evolved line (AB-SEN (A. baumannii ATCC 17978), evolved line 8 of the given antibiotic): 512 µg/mL | Relative MIC (AB-SEN (A. baumannii ATCC 17978), evolved line 8 vs ancestor): 4096 | MIC of evolved line (AB-SEN (A. baumannii ATCC 17978), evolved line 9 of the given antibiotic): 1020 µg/mL | Relative MIC (AB-SEN (A. baumannii ATCC 17978), evolved line 9 vs ancestor): 8192 | MIC of evolved line (AB-SEN (ATCC 17978), evolved line 10): 128 µg/mL | Relative MIC (AB-SEN (ATCC 17978), evolved line 10, evolved vs ancestor): 1024 | Relative MIC [2]: 2048 | Relative MIC (log10) [2]: 3.311 log10 | Relative MIC (AB-SEN (Acinetobacter baumannii ATCC 17978), evolved line 2): 8192 | Relative MIC [3]: 512 | Relative MIC (log10) [3]: 2.709 log10 | Relative MIC (AB-SEN (Acinetobacter baumannii ATCC 17978), evolved line 4): 2048 | Relative MIC [4]: 8192 | Relative MIC (log10) [4]: 3.913 log10 | Relative MIC (AB-SEN (Acinetobacter baumannii ATCC 17978), evolved line 6): 8192 | Relative MIC [5]: 4096 | Relative MIC (log10) [5]: 3.612 log10 | Relative MIC [6]: 8192 | Relative MIC (log10) [6]: 3.913 log10 | Relative MIC (AB-SEN (Acinetobacter baumannii ATCC 17978), evolved line 10): 1024 | Relative MIC (AB-SEN, Acinetobacter baumannii ATCC 17978, evolved line 7): 8192 | Relative MIC (ALE, A. baumannii ATCC 17978 (AB-SEN), evolved line 1): 2048 | Relative MIC (ALE, A. baumannii ATCC 17978 (AB-SEN), evolved line 2): 8192 | Relative MIC (ALE, A. baumannii ATCC 17978 (AB-SEN), evolved line 3): 512 | Relative MIC (ALE, A. baumannii ATCC 17978 (AB-SEN), evolved line 4): 2048 | Relative MIC (ALE, A. baumannii ATCC 17978 (AB-SEN), evolved line 5): 8192 | Relative MIC (ALE, A. baumannii ATCC 17978 (AB-SEN), evolved line 6): 8192 | Relative MIC (ALE, A. baumannii ATCC 17978 (AB-SEN), evolved line 7): 8192 | Relative MIC (ALE, A. baumannii ATCC 17978 (AB-SEN), evolved line 8): 4096 | Relative MIC (ALE, A. baumannii ATCC 17978 (AB-SEN), evolved line 9): 8192 | Relative MIC (ALE, A. baumannii ATCC 17978 (AB-SEN), evolved line 10): 1024 | Relative MIC (ALE, A. baumannii ATCC BAA 1605 (AB-MDR), evolved line 1): 2048 | Relative MIC (ALE, A. baumannii ATCC BAA 1605 (AB-MDR), evolved line 2): 8192 | Relative MIC (ALE, A. baumannii ATCC BAA 1605 (AB-MDR), evolved line 3): 512 | Relative MIC (ALE, A. baumannii ATCC BAA 1605 (AB-MDR), evolved line 4): 2048 | Relative MIC (ALE, A. baumannii ATCC BAA 1605 (AB-MDR), evolved line 5): 8192 | Relative MIC (ALE, A. baumannii ATCC BAA 1605 (AB-MDR), evolved line 6): 8192 | Relative MIC (ALE, A. baumannii ATCC BAA 1605 (AB-MDR), evolved line 7): 8192 | Relative MIC (ALE, A. baumannii ATCC BAA 1605 (AB-MDR), evolved line 8): 4096 | Relative MIC (ALE, A. baumannii ATCC BAA 1605 (AB-MDR), evolved line 9): 8192 | Relative MIC (ALE, A. baumannii ATCC BAA 1605 (AB-MDR), evolved line 10): 1024 | Relative MIC (Acinetobacter baumannii ATCC 17978 (AB-SEN), evolved line 1): 2048 | Relative MIC (Acinetobacter baumannii ATCC 17978 (AB-SEN), evolved line 2): 8192 | Relative MIC (Acinetobacter baumannii ATCC 17978 (AB-SEN), evolved line 3): 512 | Relative MIC (Acinetobacter baumannii ATCC 17978 (AB-SEN), evolved line 4): 2048 | Relative MIC (Acinetobacter baumannii ATCC 17978 (AB-SEN), evolved line 5): 8192 | Relative MIC (Acinetobacter baumannii ATCC 17978 (AB-SEN), evolved line 6): 8192 | Relative MIC (Acinetobacter baumannii ATCC 17978 (AB-SEN), evolved line 7): 8192 | Relative MIC (Acinetobacter baumannii ATCC 17978 (AB-SEN), evolved line 8): 4096 | Relative MIC (Acinetobacter baumannii ATCC 17978 (AB-SEN), evolved line 9): 8192 | Relative MIC (Acinetobacter baumannii ATCC 17978 (AB-SEN), evolved line 10): 1024 | Relative MIC (Acinetobacter baumannii ATCC BAA 1605 (AB-MDR), evolved line 2): 8192 | Relative MIC (Acinetobacter baumannii ATCC BAA 1605 (AB-MDR), evolved line 4): 2048 | Relative MIC (Acinetobacter baumannii ATCC BAA 1605 (AB-MDR), evolved line 5): 8192 | Relative MIC (Acinetobacter baumannii ATCC BAA 1605 (AB-MDR), evolved line 6): 8192 | Relative MIC (Acinetobacter baumannii ATCC BAA 1605 (AB-MDR), evolved line 7): 8192 | Relative MIC (Acinetobacter baumannii ATCC BAA 1605 (AB-MDR), evolved line 8): 4096 | Relative MIC (Acinetobacter baumannii ATCC BAA 1605 (AB-MDR), evolved line 9): 8192 | Relative MIC (Acinetobacter baumannii ATCC BAA 1605 (AB-MDR), evolved line 10): 1024 | Relative MIC (Acinetobacter baumannii ATCC BAA 1605 (AB-MDR), evolved line 1): 2048 | Relative MIC (Acinetobacter baumannii ATCC BAA 1605 (AB-MDR), evolved line 3): 512
